Test results from patent US20230312556A1, “ARYLAMIDE COMPOUND, PHARMACEUTICAL COMPOSITION COMPRISING SAME, AND PREPARATION METHOD THEREFOR AND USE THEREOF” (SICHUAN KELUN-BIOTECH BIOPHARMACEUTICAL CO., LTD., priority 2020, published 2023).

Tests used:
[1] = Pharmacokinetic test in Balb/c mice; format: in vivo
Experimental: The compounds were administered to female Balb/c mice by gavage (PO) to investigate the pharmacokinetic profile.
Compound 1 of the present invention and HM95573 (prepared according to Example 116 in CN104039798B) were administered via PO; the administration dosage was 10 mg/kg, and the administration vehicle was a 20% aqueous solution of hydroxypropyl-β-cyclodextrin. Blood samples were collected before the administration (0 h) and at 0.25, 0.5, 1, 2, 4, 6, 8, 24, 48, and 72 h after the administration; 50-70 μL of blood was drawn from the orbit and spotted on Whatman 903 card, which was air-dried at room temperature for testing. After the testing, the samples were placed in a sealed dry box and stored at −80° C. (DBS samples). The DBS samples were punched with a 6 mm punch, then 80 μL of 50% acetonitrile-water was added and shaken (800 rpm, 10 min), followed by sonication for 10 min, then 350 μL of acetonitrile containing internal standard was added and shaken (700 rpm, 10 min). After sonication for 10 min, the samples were centrifuged at 4000 rpm and 4° C. for 10 min, and the supernatant was collected for LC-MS/MS analysis. The pharmacokinetic parameters were calculated using the WinNonlin 6.3 software and employing a non-compartmental model, and the results are shown in Table 6.

[2] = tested on: human hepatocellular carcinoma cell HepG2 (NRAS-Q61K mutation); assay: Cancer cell proliferation inhibition assay, HepG2; format: cell-based; settings: 72 h incubation, Cell Titer Glo
Outline: (§1)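 Cells exposed to compound at 10 to 100000 nM (nine concentrations) for 72 h. Proliferation measured as cellular ATP by CellTiter-Glo luminescence, with IC50 derived per cell line.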

[3] = tested on: human melanoma cell A375 (BRAF-V600E mutation); assay: Cancer cell proliferation inhibition assay, A375; format: cell-based; settings: A-375, 72 h incubation, Cell Titer Glo
Outline: as §1

[4] = Pharmacokinetic test in Beagle dogs; format: in vivo
Experimental: The compounds were administered to male Beagle dogs by gavage (PO) to investigate the pharmacokinetic profile.
Compound 1 of the present invention and HM95573 were administered via PO; the administration dosage was 2.5 mg/kg, and the solvent was a 20% aqueous solution of hydroxypropyl-β-cyclodextrin. Blood samples were collected before the administration (0 h) and at 0.25, 0.5, 1, 2, 4, 6, 8, 24, 48, and 72 hours after the administration, and 1 mL blood was collected from the limbs vein and placed in a K2-EDTA anticoagulation tube. After centrifugation at 4000 rpm for 5 min (4° C.), the plasma was separated and stored at −80° C. for testing. The plasma samples were processed by precipitating proteins, and then subjected to LC-MS/MS analysis. The pharmacokinetic parameters were calculated using the WinNonlin 6.3 software and employing a non-compartmental model, and the results are shown in Table 7.

wild-type BRAF enzyme = wild-type BRAF enzyme (Homo sapiens (Human), UniProt P15056); assay: RAF inhibition assay (TB-PMAP2K1 kit), wild-type BRAF; format: biochemical; settings: FLUORESCEIN-MAP2K1 substrate, 60 min reaction
Chain of wild-type BRAF enzyme (P15056 whole entry): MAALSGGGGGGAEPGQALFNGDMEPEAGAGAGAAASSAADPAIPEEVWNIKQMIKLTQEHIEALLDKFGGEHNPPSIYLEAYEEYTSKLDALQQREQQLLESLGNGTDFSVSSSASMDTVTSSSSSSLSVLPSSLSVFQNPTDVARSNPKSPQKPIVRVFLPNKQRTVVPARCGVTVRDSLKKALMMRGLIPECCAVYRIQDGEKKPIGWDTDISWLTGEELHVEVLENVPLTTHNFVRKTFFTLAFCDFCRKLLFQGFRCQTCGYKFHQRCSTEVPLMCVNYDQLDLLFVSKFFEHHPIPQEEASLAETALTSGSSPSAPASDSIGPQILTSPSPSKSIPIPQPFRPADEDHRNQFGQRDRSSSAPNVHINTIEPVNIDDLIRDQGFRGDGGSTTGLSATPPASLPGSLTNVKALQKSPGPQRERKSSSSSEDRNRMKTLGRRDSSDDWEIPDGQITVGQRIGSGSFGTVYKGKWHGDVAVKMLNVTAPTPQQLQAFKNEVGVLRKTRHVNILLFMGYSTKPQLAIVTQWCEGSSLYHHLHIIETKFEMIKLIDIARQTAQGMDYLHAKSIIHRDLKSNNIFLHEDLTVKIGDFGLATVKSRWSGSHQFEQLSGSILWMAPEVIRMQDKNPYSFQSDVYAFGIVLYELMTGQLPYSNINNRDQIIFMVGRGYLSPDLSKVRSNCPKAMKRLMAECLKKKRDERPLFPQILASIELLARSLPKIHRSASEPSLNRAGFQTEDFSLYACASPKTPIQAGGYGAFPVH
Experimental: Assay protocol: the inhibitory effects of the compounds of the present invention on the wild-type BRAF enzyme, mutant CRAF enzyme (RAF1 Y340D and Y341D) and mutant BRAF enzyme (BRAF-V600E) activity were determined according to the instructions of the TB-PMAP2K1 (PSER217/221) kit (ThermoFisher). Different RAF enzymes and substrates (FLUORESCEIN-MAP2K1) were pre-incubated with test compounds at various concentrations at room temperature for 15 min, and then the adenosine triphosphate (ATP) was added to initiate the reaction. After incubation at room temperature for 60 min, EDTA and Tb-labeled anti-pMAP2K1 [pS217/221] antibody solutions were added, and incubation was performed at room temperature for 60 min before the detection of the fluorescence values of the compounds in each group. With the vehicle group (DMSO) as the negative control and the buffer group (without RAF enzyme) as the blank control, the relative inhibitory activity percentage (i.e., the inhibition rate) of a compound at different concentrations was calculated according to the following formula:
Relative inhibitory activity percentage=1−(Compound group at various concentrations−blank control)/(negative control−blank control)*100%
The relative inhibitory activity percentages of the compounds at different concentrations were plotted against the compound concentrations, the curve was fitted according to a four-parameter model, and the IC50 value was calculated according to the following formula:
y=min+(max−min)/(1+(x/IC50)^(−Hillslope))
wherein y is the relative inhibitory activity percentage, max and min are respectively the maximum and minimum values of the fitted curve, x is the logarithm concentration of the compound, and Hillslope is the slope of the curve.

[5] = mouse, whole blood (dried blood spots), female Balb/c mice, PO, 10 mg/kg, DBS samples
[6] = dog, male Beagle dogs, PO, 2.5 mg/kg, plasma
[7] = female Balb/c mice, PO, 10 mg/kg, DBS samples
[8] = male Beagle dogs, PO, 2.5 mg/kg, plasma

SMILES	IC50 [2] [µM]	IC50 [3] [µM]	IC50 (wild-type BRAF enzyme) [µM]	other results
Cc1ccc2c(Nc3cccc(Cl)c3F)nccc2c1NC(=O)c1cccc2c(N)ncnc12 [Compound 1, 4-amino-N-(1-((3-chloro-2-fluorophenyl)amino)-6-methylisoquinolin-5-yl)quinazoline-8-carboxamide]	0.0713 ± 0.0055	0.0293 ± 0.0023	0.0187 ± 0.00271	Conclusion on pharmacokinetics in mice ([1]; mice after PO administration): Conclusion: compound 1 of the present invention has a high maximum plasma concentration and a high exposure in mice after PO administration.; AUC(0-t) [1, 5]: 172 ± 18.3 µg·h/mL; half-life [1, 5]: 8.33 ± 0.95 h; Cmax ([1]; mouse, whole blood (dried blood spots), female Balb/c mice, PO, 10 mg/kg, DBS samples, read-out: Cmax): 8.24 ± 0.586 µg/mL; Tmax ([1]; mouse, whole blood (dried blood spots), female Balb/c mice, PO, 10 mg/kg, DBS samples, read-out: Tmax): 1.67 ± 0.58 h; AUC(0-t) [4, 6]: 31 ± 4.24 µg·h/mL; half-life [4, 6]: 15.4 ± 4.1 h; Cmax ([4]; dog, male Beagle dogs, PO, 2.5 mg/kg, plasma, read-out: Cmax): 1.8 ± 0.127 µg/mL; Tmax ([4]; dog, male Beagle dogs, PO, 2.5 mg/kg, plasma, read-out: Tmax): 1 h; Conclusion on pharmacokinetics in dogs ([4]; dogs after PO administration): Conclusion: Compound 1 of the present invention has a high maximum plasma concentration, high exposure, long half-life and good overall PK properties in dogs after PO administration.
Cc1ccc2c(Nc3ccc(Cl)cc3F)nccc2c1NC(=O)c1cccc2c(N)ncnc12 [Compound 41, 4-amino-N-(1-((4-chloro-2-fluorophenyl)amino)-6-methylisoquinolin-5-yl)quinazoline-8-carboxamide]	0.0556 ± 0.0048	0.0222 ± 0.00186	0.0318 ± 0.00536	
Cc1ccc2c(Nc3cccc(C(F)(F)F)c3)nccc2c1NC(=O)c1cnc2c(N)ncnn12 [Compound 43, 4-amino-N-(6-methyl-1-((3-(trifluoromethyl)phenyl)amino)isoquinolin-5-yl)imidazo[2,1-f][1,2,4]triazine-7-carboxamide]	0.0329 ± 0.0033	0.0617 ± 0.003	0.0207 ± 0.00571	
Cc1ccc2c(Nc3cccc(Cl)c3F)nccc2c1NC(=O)c1cc(F)cc2c(N)ncnc12 [Compound 46, 4-amino-N-(1-((3-chloro-2-fluorophenyl)amino)-6-methylisoquinolin-5-yl)-6-fluoroquinazoline-8-carboxamide]	0.0744 ± 0.00791	0.0893 ± 0.0052	0.0793 ± 0.0195	
COc1ccc(Nc2nccc3c(NC(=O)c4cccc5c(N)ncnc45)c(C)ccc23)c(F)c1 [Compound 60, 4-amino-N-(1-((2-fluoro-4-methoxyphenyl)amino)-6-methylisoquinolin-5-yl)quinazoline-8-carboxamide]	0.0341 ± 0.00432	0.028 ± 0.00312	0.00848 ± 0.0009	
Cc1ccc2c(Nc3ccc(F)cc3F)nccc2c1NC(=O)c1cccc2c(N)ncnc12 [Compound 67, 4-amino-N-(1-((2,4-difluorophenyl)amino)-6-methylisoquinolin-5-yl)quinazoline-8-carboxamide]	0.0567 ± 0.0093	0.184 ± 0.0169	0.0132 ± 0.00167	
Cc1ccc2c(Nc3cc(Cl)ccc3F)nccc2c1NC(=O)c1cccc2c(N)ncnc12 [Compound 73, 4-amino-N-(1-((5-chloro-2-fluorophenyl)amino)-6-methylisoquinolin-5-yl)quinazoline-8-carboxamide]	0.0596 ± 0.0022	0.109 ± 0.0228	0.0362 ± 0.0165	
Cc1ccc2c(Nc3ccc(F)cc3F)nccc2c1NC(=O)c1cc(F)cc2c(N)ncnc12 [Compound 85, 4-amino-N-(1-((2,4-difluorophenyl)amino)-6-methylisoquinolin-5-yl)-6-fluoroquinazoline-8-carboxamide]	0.0401 ± 0.00697	0.148 ± 0.0038	0.0129 ± 0.0009	
Cc1ccc2c(Nc3cc(S(C)(=O)=O)ccc3F)nccc2c1NC(=O)c1cccc2c(N)ncnc12 [Compound 89, 4-amino-N-(1-((2-fluoro-5-(methylsulfonyl)phenyl)amino)-6-methylisoquinolin-5-yl)quinazoline-8-carboxamide]	0.106 ± 0.0252	0.111 ± 0.0052	0.0204 ± 0.0013	
Cc1ccc2c(Nc3cc(F)c(F)cc3F)nccc2c1NC(=O)c1cccc2c(N)ncnc12 [Compound 90, 4-amino-N-(6-methyl-1-((2,4,5-trifluorophenyl)amino)isoquinolin-5-yl)quinazoline-8-carboxamide]	0.118 ± 0.0126	0.074 ± 0.0063	0.0265 ± 0.00218	
Nc1ncnc2c(C(=O)Nc3c(F)ccc4c(Nc5cccc(Cl)c5F)nccc34)cccc12 [Compound 92, 4-amino-N-(1-((3-chloro-2-fluorophenyl)amino)-6-fluoroisoquinolin-5-yl)quinazoline-8-carboxamide]	0.0498 ± 0.0043	0.128 ± 0.008	0.0218 ± 0.00389	
Cc1ccc2c(Nc3cccc(Cl)c3F)nccc2c1NC(=O)c1ccc(F)c2c(N)ncnc12 [Compound 93, 4-amino-N-(1-((3-chloro-2-fluorophenyl)amino)-6-methylisoquinolin-5-yl)-5-fluoroquinazoline-8-carboxamide]	0.0629 ± 0.0113	0.0617 ± 0.0036	0.0135 ± 0.00102	
Cc1ccc2c(Nc3c(F)cc(F)cc3F)nccc2c1NC(=O)c1cccc2c(N)ncnc12 [Compound 94, 4-amino-N-(6-methyl-1-((2,4,6-trifluorophenyl)amino)isoquinolin-5-yl)quinazoline-8-carboxamide]	0.0474 ± 0.0065	0.0588 ± 0.0056	0.0103 ± 0.001	
Cc1ccc2c(Nc3cccc(Cl)c3F)nccc2c1NC(=O)c1csc2c(N)ncnc12 [HM95573, reference compound]				AUClast [1, 7]: 110.76 ± 9.636 µg·h/mL; Cmax [1, 7]: 4.71 ± 0.806 µg/mL; T1/2 [1, 7]: 9.57 ± 0.58 h; Tmax [1, 7]: 1.67 ± 0.58 h; AUClast [4, 8]: 13.08 ± 6.254 µg·h/mL; Cmax [4, 8]: 0.989 ± 0.411 µg/mL; T1/2 [4, 8]: 8.43 ± 1.76 h; Tmax [4, 8]: 1.33 ± 0.58 h
